pIC50: −log10 of the molar value. Bounds are passed on as bounds.

In general, pIC50 refers to −log10 of the IC50, conventionally taken in molar units. A lower pIC50 goes with a large IC50.

Assay [1] concerns IL-1 production in whole blood. The assay can be described thus: Inhibition of IL-1 production in LPS-stimulated whole blood ("WB"). Format: cell-based, human. Particulars: Homo sapiens. Here is the method: (§1) Inhibitors were serially diluted in DMSO from a 20 mM stock. At least 6 serial dilutions were prepared. Then 4× inhibitor stocks were prepared by adding 4 μl of an inhibitor dilution to 1 ml of RPMI1640 medium/10% fetal bovine serum. The 4× inhibitor stocks contained inhibitor at concentrations of 80 μM, 32 μM, 12.8 μM, 5.12 μM, 2.048 μM, 0.819 μM, 0.328 μM, 0.131 μM, 0.052 μM, 0.021 μM etc. The 4× inhibitor stocks were pre-warmed at 37° C. until use.
(§2) Alternatively, whole blood containing an anti-coagulant was used directly in the assay.
(§3) We placed 100 μl of cell suspension or whole blood in each well of a 96-well cell culture plate. Then we added 50 μl of the 4× inhibitor stock to the cells. Finally, we added 50 μl of a lipopolysaccharide (LPS) working stock solution (16 ng/ml in cell culture medium) to give a final concentration of 4 ng/ml LPS in the assay. The total assay volume of the vehicle control was also adjusted to 200 μl by adding 50 μl cell culture medium. The PBMC cells or whole blood were then incubated overnight (for 12–15 hours) at 37° C./5% CO2 in a humidified atmosphere.
(§4) The next day the cells were mixed on a shaker for 3–5 minutes before centrifugation at 500×g for 5 minutes. Cell culture supernatants were harvested and analyzed by ELISA for levels of IL-1b (R & D Systems, Quantikine kits, #DBL50), TNF-α (BioSource, #KHC3012), IL-6 (Endogen, #EH2-IL6) and IL-8 (Endogen, #EH2-IL8) according to the instructions of the manufacturer. The ELISA data were used to generate dose-response curves from which IC50 values were derived.

Assay [2] concerns TNF production in LPS-stimulated PBMCs. In words: Inhibition of TNF production in LPS-stimulated PBMCs ("cell"). Particulars: Homo sapiens, PBMC. Format: cell-based, human. The method, then:
as §1
(§5) Fresh human blood buffy cells were separated from other cells in a Vacutainer CPT from Becton & Dickinson (containing 4 ml blood and enough DPBS without Mg^2+/Ca^2+ to fill the tube) by centrifugation at 1500×g for 15 min. Peripheral blood mononuclear cells (PBMCs), located on top of the gradient in the Vacutainer, were removed and washed twice with RPMI1640 medium/10% fetal bovine serum. PBMCs were collected by centrifugation at 500×g for 10 min. The total cell number was determined using a Neubauer Cell Chamber and the cells were adjusted to a concentration of 4.8×10^6 cells/ml in cell culture medium (RPMI1640 supplemented with 10% fetal bovine serum).
as §3, §4

Another assay has as its target activated p38 (Homo sapiens, UniProt Q16539). In words: Inhibition of phosphorylation of EGF receptor peptide ("kinase"). Format: biochemical. Particulars: inhibition of phosphorylation of EGF receptor peptide by activated p38. Put shortly: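 Activated p38 was preincubated with inhibitor for 15 min at room temperature in 100 mM HEPES pH 7.6, 10 mM MgCl2, 25 mM β-glycerophosphate, 10% glycerol, 5% DMSO final. Reaction used 200 μM EGF receptor peptide and 100 μM ATP for 30 min at 30° C. TFA-quenched phosphopeptide was quantified by reverse-phase HPLC.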

Assay [3] relates to IL-6 production in whole blood. The assay can be described thus: Inhibition of IL-6 production in LPS-stimulated whole blood ("WB"). Format: cell-based, human. Particulars: Homo sapiens. Here is the method: as §1, §2, §3, §4
For assay [4], the system named is IL-1 production in LPS-stimulated PBMCs. In words: Inhibition of IL-1 production in LPS-stimulated PBMCs ("cell"). Format: cell-based, human. Particulars: Homo sapiens, PBMC. The method, then: as §1, §5, §3, §4
For assay [5], the system named is TNF production in whole blood. In words: Inhibition of TNF production in LPS-stimulated whole blood ("WB"). Format: cell-based, human. Particulars: Homo sapiens. Here is the method:
as §1, §2, §3, §4

Chain of activated p38 (Q16539 whole entry): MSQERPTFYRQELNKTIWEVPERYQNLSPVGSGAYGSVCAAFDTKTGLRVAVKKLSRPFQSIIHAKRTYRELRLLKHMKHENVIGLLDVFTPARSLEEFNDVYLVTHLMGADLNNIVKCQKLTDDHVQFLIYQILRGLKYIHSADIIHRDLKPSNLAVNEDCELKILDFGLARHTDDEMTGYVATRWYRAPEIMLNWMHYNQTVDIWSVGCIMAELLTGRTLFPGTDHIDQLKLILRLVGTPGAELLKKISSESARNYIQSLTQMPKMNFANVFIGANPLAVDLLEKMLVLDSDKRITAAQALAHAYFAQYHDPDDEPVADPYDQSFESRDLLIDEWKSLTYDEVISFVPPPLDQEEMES

Take `NC(=O)C(c1cccc(-c2ccccc2)n1)c1c(Cl)cccc1Cl` (centres unmarked) [202/301]: the negative logarithm of the IC50 (pIC50) was not above 6.30 in assay [1]; 6.30 to 7.00 in assay [2]; not below 7.00 against activated p38; not above 6.30 in assay [3]; 6.30 to 7.00 in assay [4]; not above 6.30 in assay [5].
As to `O=c1ncn2nc(Sc3ccc(F)cc3)ccc2c1-c1c(Cl)cccc1Cl` [Compound 12], the negative logarithm of the IC50 (pIC50) in assay [1] was not above 6.30; in assay [2], 6.30 to 7.00; against activated p38, 6.00 to 7.00; in assay [3], not above 6.30; in assay [4], 6.30 to 7.00; in assay [5], not above 6.30.
For `Cc1ccccc1Sc1ccc2c(-c3c(Cl)cccc3Cl)c(=O)ncn2n1` [Compound 23], the negative logarithm of the IC50 (pIC50) was not above 6.30 in assay [1]; not above 6.30 in assay [2]; 6.00 to 7.00 on activated p38; not above 6.30 in assay [3]; 6.30 to 7.00 in assay [4]; not above 6.30 in assay [5].
For `COC(=O)c1ccccc1Sc1ccc2c(-c3c(Cl)cccc3Cl)c(=O)ncn2n1` [Compound 26], the pIC50 in assay [1] was not above 6.30; in assay [2] it was 6.30 to 7.00; against activated p38 it was not above 6.00; in assay [3], not above 6.30; in assay [4] it was not below 7.00; in assay [5], not above 6.30.
`O=C(O)c1ccccc1Sc1ccc2c(-c3c(Cl)cccc3Cl)c(=O)ncn2n1` [Compound 27]: the pIC50 was not above 6.30 in assay [1]; not above 6.30 in assay [2]; 6.00 to 7.00 on activated p38; not above 6.30 in assay [3]; not above 6.30 in assay [4]; not above 6.30 in assay [5].
Turning to `Cc1ccc(Sc2ccc3c(-c4c(Cl)cccc4Cl)c(=O)ncn3n2)c(C)c1` [Compound 32], the negative logarithm of the IC50 (pIC50) is not above 6.30 in assay [1]; 6.30 to 7.00 in assay [2]; 6.00 to 7.00 at activated p38; not above 6.30 in assay [3]; not above 6.30 in assay [4]; not above 6.30 in assay [5].
Consider `O=c1ncn2nc(Sc3ccccc3O)ccc2c1-c1c(Cl)cccc1Cl` [Compound 33], for which the negative-log IC50 (pIC50) is not above 6.30 in assay [1]; 6.30 to 7.00 in assay [2]; 6.00 to 7.00 against activated p38; not above 6.30 in assay [3]; 6.30 to 7.00 in assay [4]; not above 6.30 in assay [5].
For `Nc1cc(F)ccc1Sc1ccc2c(-c3c(Cl)cccc3Cl)c(=O)ncn2n1` [Compound 35], the negative-log IC50 (pIC50) was not above 6.30 in assay [1]; not above 6.30 in assay [2]; 6.00 to 7.00 on activated p38; not above 6.30 in assay [3]; 6.30 to 7.00 in assay [4]; not above 6.30 in assay [5].
Take `COc1ccc(-c2c(=O)ncn3nc(Sc4ccc(F)cc4)ccc23)c(Cl)c1OC` [Compound 36]: the pIC50 is not above 6.30 in assay [1]; not above 6.30 in assay [2]; not above 6.00 against activated p38; not above 6.30 in assay [3]; not above 6.30 in assay [4]; not above 6.30 in assay [5].
Regarding `Nc1ccc(Cl)c(-c2c(=O)ncn3nc(Sc4ccc(Br)cc4)ccc23)c1Cl` [Compound 37], the pIC50 in assay [1] is not above 6.30; in assay [2] it was not above 6.30; against activated p38 it was 6.00 to 7.00; in assay [3] it was not above 6.30; in assay [4], 6.30 to 7.00; in assay [5] it was not above 6.30.
Consider `O=c1ncn2nc(Sc3ccc(F)cc3Cl)ccc2c1-c1c(Cl)cccc1Cl` [Compound 38], for which the pIC50 in assay [1] was 6.30 to 6.60; in assay [2], 6.30 to 7.00; against activated p38, not below 7.00; in assay [3], 6.30 to 6.60; in assay [4], not below 7.00; in assay [5], 6.30 to 6.60.
Consider `O=C(CCl)Nc1ccc(-c2c(=O)ncn3nc(Sc4ccc(F)cc4)ccc23)c(Cl)c1` [Compound 49], for which the pIC50 in assay [1] is not above 6.30; in assay [2], not above 6.30; against activated p38, 6.00 to 7.00; in assay [3], not above 6.30; in assay [4], not below 7.00; in assay [5], not above 6.30.
In the case of `COC(=O)c1ccccc1SC1=NN2CNC(=O)C(c3c(Cl)cccc3Cl)=C2C=C1` [Compound 101], the negative-log IC50 (pIC50) in assay [1] is not above 6.30; in assay [2] it was not below 7.00; against activated p38, 6.00 to 7.00; in assay [3], 6.30 to 6.60; in assay [4], not below 7.00; in assay [5] it was not above 6.30.
Turning to `Cc1ccccc1SC1=NN2CNC(=O)C(c3c(Cl)cccc3Cl)=C2C=C1` [Compound 102], the pIC50 was not above 6.30 in assay [1]; not below 7.00 in assay [2]; not below 7.00 against activated p38; 6.30 to 6.60 in assay [3]; not below 7.00 in assay [4]; 6.30 to 6.60 in assay [5].
Regarding `O=C1NCN2N=C(Sc3ccc(F)cc3)C=CC2=C1c1c(Cl)cccc1Cl` [Compound 103], the pIC50 is not above 6.30 in assay [1]; not below 7.00 in assay [2]; not below 7.00 against activated p38; 6.30 to 6.60 in assay [3]; not below 7.00 in assay [4]; 6.30 to 6.60 in assay [5].
As to `O=C1NCN2N=C(Sc3ccccc3C(=O)O)C=CC2=C1c1c(Cl)cccc1Cl` [Compound 104], the negative-log IC50 (pIC50) was not above 6.30 in assay [1]; 6.30 to 7.00 in assay [2]; 6.00 to 7.00 against activated p38; not above 6.30 in assay [3]; 6.30 to 7.00 in assay [4]; not above 6.30 in assay [5].
As for `Cc1cc(Cl)ccc1SC1=NN2CNC(=O)C(c3c(Cl)cccc3Cl)=C2C=C1` [Compound 106], the negative-log IC50 (pIC50) is not above 6.30 in assay [1]; not below 7.00 in assay [2]; not below 7.00 on activated p38; 6.30 to 6.60 in assay [3]; not below 7.00 in assay [4]; 6.30 to 6.60 in assay [5].
For the compound `O=C1NCN2N=C(Sc3ccccc3CO)C=CC2=C1c1c(Cl)cccc1Cl` [Compound 108], the pIC50 in assay [1] was 6.30 to 6.60; in assay [2] it was not below 7.00; at activated p38 it was not below 7.00; in assay [3], not below 6.60; in assay [4], 6.30 to 7.00; in assay [5], not below 6.60.
`O=C1NCN2N=C(Sc3ccccc3Br)C=CC2=C1c1c(Cl)cccc1Cl` [Compound 109]: the pIC50 was not above 6.30 in assay [1]; not below 7.00 in assay [2]; not below 7.00 on activated p38; 6.30 to 6.60 in assay [3]; not below 7.00 in assay [4]; not above 6.30 in assay [5].
For `CC(C)(C)OC(=O)Nc1ccccc1SC1=NN2CNC(=O)C(c3c(Cl)cccc3Cl)=C2C=C1` [Compound 112], the pIC50 in assay [1] is not above 6.30; in assay [2] it was not above 6.30; at activated p38, 6.00 to 7.00; in assay [3] it was not above 6.30; in assay [4], 6.30 to 7.00; in assay [5], not above 6.30.
For the compound `Cc1ccc(SC2=NN3CNC(=O)C(c4c(Cl)cccc4Cl)=C3C=C2)c(C)c1` [Compound 113], the pIC50 is not above 6.30 in assay [1]; 6.30 to 7.00 in assay [2]; not below 7.00 against activated p38; not above 6.30 in assay [3]; not below 7.00 in assay [4]; not above 6.30 in assay [5].
On to `O=C1NCN2N=C(Sc3ccccc3O)C=CC2=C1c1c(Cl)cccc1Cl` [Compound 114], for which the negative logarithm of the IC50 (pIC50) in assay [1] was 6.30 to 6.60; in assay [2], not below 7.00; against activated p38, not below 7.00; in assay [3], not below 6.60; in assay [4], not below 7.00; in assay [5], 6.30 to 6.60.
With `Nc1ccccc1SC1=NN2CNC(=O)C(c3c(Cl)cccc3Cl)=C2C=C1` [Compound 115], the pIC50 was not above 6.30 in assay [1]; not below 7.00 in assay [2]; not below 7.00 against activated p38; not above 6.30 in assay [3]; not below 7.00 in assay [4]; not above 6.30 in assay [5].
In the case of `COC(=O)CCc1ccc(SC2=NN3CNC(=O)C(c4c(Cl)cccc4Cl)=C3C=C2)cc1` [Compound 120], the pIC50 in assay [1] was not above 6.30; in assay [2] it was not above 6.30; in assay [3] it was not above 6.30; in assay [4], 6.30 to 7.00; in assay [5] it was not above 6.30.

The values are drawn from patent US7205305B2, “Inhibitors of p38” (Vertex Pharmaceuticals Incorporated, priority 1996, dated 2007).
